Laboratory results reported in patent US20090042849A1, “Phosphorylation of 5-lipoxygenase at ser523 and uses thereof” (priority 2006, published 2009).
“Also recorded” adds a separate entry of the source.

Legend:
[1] = system: rat infarct model; assay: rat infarct model, infarct size; format: in vivo; details: ATV 2 mg/kg/d, cilostazol 20 mg/kg/d, alone or combined
Protocol: The effects of cilostazol (Pletal) and atorvastatin on myocardial protection was measured in a rat infarct model. Pletal is a phosphodiesterase III inhibitor, thus increasing intracellular cAMP levels. cAMP activates PKA. ATV at 2 mg/kg/d had no effect. Cilostazol 20 mg/kg/d reduced infarct size. However, when combined with ATV 2 mg/kg/d the effect was much greater. There are 8 rats in the control and ATV 2 mg/kg/d groups and 6 rats in the cilostazol and the combination groups. Infarct size in the ATV 2 mg/kg/d (30.48±1.46%) is not different from the controls (33.97±2.76%).

[2] = system: 5LO interaction with COX2 / cPLA2; assay: co-immunoprecipitation of 5LO with COX2 and cPLA2 in rat hearts; format: in vivo
Protocol: Rats received: 1) PIO (10 mg/kg/d); 2) ATV (10 mg/kg/d); 3) PIO (10 mg/kg/d)+H89 (20 mg/kg); 4) ATV (10 mg/kg/d)+H89 (20 mg/kg); 5) H89 (20 mg/kg) or 6) water alone (control). PIO and ATV were suspended in water and administered by gastric gavage once daily for 3 days; H-89 was dissolved in DMSO (final concentration 5% v/v) and injected intraperitoneally on the third day. Rats in groups 5 and 6 received water by gastric gavage once daily for 3 days. Rats in groups 1, 2 and 6 received intraperitoneal inkection of DMSO 5%. Sixteen hours after the injection, rats were euthanized and the hearts explanted for further analyses. In another experiment, rats received 3-day pretreatment with: 1) water (sham); 2) PIO (10 mg/kg/d); 3) ATV (10 mg/kg/d); 4) PIO (10 mg/kg/d)+ATV (10 mg/kg/d); or 5) LPS (10 mg/kg).
For co-immunoprecipitation, myocardial cytosolic, membranous and nuclear fractions (500 μg) were incubated with anti-5LO antibodies for 4 h followed by overnight incubation at 4° C. with Protein-A-Agarose. The agarose beads were collected by centrifugation and SDS/PAGE Western immunoblotting was performed with the supernatant fraction. The anti-5LO precipitates were subjected to immunoblotting with anti-COX2 or anti-cPLA2 antibodies.

[3] = system: 5LO mRNA; assay: rtPCR of 5LO mRNA in adult rat cardiomyocytes; format: cell-based
Protocol: (§1) Cardiac myocytes were isolated from adult Sprague-Dawley rats (250-300 g, male). Animals were heparinized (1,000-2,000 units i.p.) 5 min before being anesthetized with ketamine (100 mg/kg) and xylazine (10 mg/kg), and the hearts were removed and placed in ice-cold heart media solution (in mmol/l: 112 NaCl, 5.4 KCl, 1 MgCl2, 9 NaH2PO4, and 11.1 D-glucose; supplemented with 10 HEPES, 30 taurine, 2 DL-carnitine, and 2 creatine, pH. 7.4). The hearts were perfused retrogradely in a Langendorff apparatus with Ca^2+-free heart media for 5 min at 5 ml/min at 37° C., followed by perfusion with Ca^2+-free heart media containing collagenase II, 210 U/mg (Worthington, Lakewood, N.J.) for 20 min. After perfusion, both ventricles were removed from the heart and minced in collagenase II-containing heart media for 10-15 min. The cell solution was then washed several times to remove collagenase II and reexposed to 1.2 mM Ca2^+ over 25 min to produce Ca2^+-tolerant cardiac myocytes. Myocytes were then plated in 4% FBS on laminin (2 μg/cm^2)-coated plates for 1 h and incubated at 37° C. in 5% CO2 for 12-24 h before experiments (21). Cells were incubated with 1) vehicle (0.07% ethanol); 2) PIO (10 μM)+ATV (10 μM); 3) H-89 (0.1 μM); or 4) PIO+ATV+H-89 for 12 hours. The supernatants were collected directly for LTB4 analyses by ELISA and the cells were harvested for immunoblotting. In addition, cells were plated in 8-chamber slides, received the same treatment as above and were used for immunohistochemical staining.
Equal amounts of total cellular RNA were reverse-transcribed with oligo(dT) primer by use of AMV Reverse Transcriptase (Applied Biosystems). Transcribed cDNAs (40 ng) were used for Real Time PCR with specific primers: rat ALOX5. […] The Ct (threshold cycle) is defined as the number of cycles required for the fluorescence signal to exceed the detection threshold. Expression of the ALOX5 relative to the GAPDH was calculated as the different between the threshold values of these two genes. […]

[4] = system: 5LO; assay: immunofluorescence of 5LO in adult rat cardiomyocyte cultures; format: cell-based; details: PIO 10 μM, ATV 10 μM, H-89 0.1 μM, 12 hours
Protocol: as §1, with “Myocytes were then plated in 4% FBS on laminin (2 μg/cm^2)-coated plates for 1 h and incubated at 37° C. in 5% CO2 for 12-24 h before experiments (21). Cells were incubated with 1) vehicle (0.07% ethanol); 2) PIO (10 μM)+ATV (10 μM); 3) H-89 (0.1 μM); or 4) PIO+ATV+H-89 for 12 hours. The supernatants were collected directly for LTB4 analyses by ELISA and the cells were harvested for immunoblotting. In addition, cells were plated in 8-chamber slides, received the same treatment as above and were used for immunohistochemical staining.” left out
Immunofluorescent labeling was performed on paraffin sections (5-μm) of 4% formaldehyde-fixed rat cardiac tissue, as described previously (22). […] All the slides were viewed under an Olympus BX51 microscope [images recorded by a DP70 Digital camera (Olympus Optical Co., Ltd., Tokyo, Japan)] or confocal microscope (Bio-Rad 2100 (Hercules, Calif.).

[5] = system: 15ELXA; assay: 15ELXA levels in adult rat cardiac myocytes (ELISA); format: cell-based

Structure (SMILES) | Infarct size [1] [%] | effect on infarct size (in words) [1] | fraction in which the co-immunoprecipitation with 5LO occurred ([2]; cytosolic and membranous fractions) | co-immunoprecipitation of COX2 or cPLA2 with 5LO ([2]; whole cell lysate) | 5LO mRNA levels in the cardiomyocytes [3] | 5LO expression and localization in cardiomyocytes [4] | effect on the PIO+ATV augmentation of 15ELXA levels ([5]; H-89 0.1 μM with PIO+ATV) | levels of 15ELXA ([5]; PIO 10 μM, ATV 10 μM, H-89 0.1 μM, 12 hours)
CC(C)c1c(C(=O)Nc2ccccc2)c(-c2ccccc2)c(-c2ccc(F)cc2)n1CCC(O)CC(O)CC(=O)O (stereo not drawn) [ATV, 7-[2-(4-fluorophenyl)-5-(1-methylethyl)-3-phenyl-4-(phenylcarbamoyl)-1H-pyrrol-1-yl]-3,5-dihydroxy-heptanoic acid] | 30.48±1.46 | no effect | in the cytosolic, but not the membranous fraction; also recorded: only in the cytosolic fraction | 5LO precipitated with COX2 and COX2, but not cPLA2, precipitated with 5LO | did not affect |  |  | 
O=S(=O)(NCCNC/C=C/c1ccc(Br)cc1)c1cccc2cnccc12 [H-89] |  |  |  |  | did not affect | no effect | attenuated | no effect
